Non-standard residues stand in square brackets, D forms with d. Residues, ends and D or L forms follow the SMILES beside them.
Legend:
blood glucose = test: potentiation of the hypoglycemic effect of insulin in adrenalectomized rats; format: in vivo, rat
gastric acid = test: reduction of gastric acid after intravenous administration to the rat; format: in vivo; details: i.v. dose of 30 μg/kg
Protocol: The peptides according to the invention have the inhibitory properties of somatostatin, but their duration of action is considerably longer at lower doses. For example, after intravenous administration to the rat, these peptides reduce gastric acid with an ED50 of about 5 μg/kg. The reduction in gastric acid is maintained for 2 hours. […] A reduction in gastric acid is only brought about by infusing somatostatin. […] The new compounds can also be administered orally and intranasally. However, in these instances considerably higher doses are necessary because of the poorer absorption.

C[C@@H](O)[C@@H]1NC(=O)[C@H](CCCCN)NC(=O)[C@@H](Cc2c[nH]c3ccccc23)NC(=O)[C@H](Cc2ccccc2)NC(=O)[C@@H]2CCCN2C(=O)[C@H](Cc2ccccc2)NC1=O [cyclo-(Pro-Phe-D-Trp-Lys-Thr-Phe)] (cyclo(PF[dW]KTF))
effect on blood glucose (blood glucose; dose of as much as 0.318 μg/kg^-1. min^-1): completely ineffective

C[C@H](N)C(=O)NCC(=O)N[C@H]1CSSC[C@@H](C(=O)O)NC(=O)[C@H](CO)NC(=O)[C@H]([C@@H](C)O)NC(=O)[C@H](Cc2ccccc2)NC(=O)[C@H]([C@@H](C)O)NC(=O)[C@H](CCCCN)NC(=O)[C@H](Cc2c[nH]c3ccccc23)NC(=O)[C@H](Cc2ccccc2)NC(=O)[C@H](Cc2ccccc2)NC(=O)[C@H](CC(N)=O)NC(=O)[C@H](CCCCN)NC1=O [somatostatin, Somatostatin]
effect on gastric acid (gastric acid): no effect whatever

cyclo-(Aoc-Phe-D-Trp-Lys-Val-Phe)
potentiation of the hypoglycemic effect of insulin, effect relative to cyclo-(Pro-Phe-D-Trp-Lys-Thr-Phe) (blood glucose): at least twice
reduction of blood glucose (blood glucose; dose of 0.07 μg/kg^-1.min^-1): up to 24%

Reference: US4621073A, “Cyclic peptides having somatostatin activity” (Hoechst Aktiengesellschaft, priority 1983, dated 1986)
